Experimental data: US20260207563A1, “UREA COMPOUNDS AS ACTIVATORS OF POTASSIUM CHANNELS KV7.2/7.3 USEFUL IN THE TREATMENT OF CNS AND PNS DISORDERS” (ANGELINI PHARMA S.P.A., priority 2022, published 2026)

Experiments:
Assay type in all cases: cell-based
[1] = target: T1, heteromeric KV7.2/KV7.3 channels (KCNQ2, KCNQ3) (Homo sapiens, UniProt O43525+O43526); assay: Automated patch-clamp (Sophion Qube 384) potency assay against KV7.2/KV7.3 channels; conditions: CHO-K1/Kv7.2/Kv7.3 cells; for EC50: EC50 from concentration-response of shift in Vhalf, 10 concentrations up to 30 μM, read-out: Kv7.2/7.3 EC50; for Kv7.2/7.3 ΔV1/2: maximal shift in the Vhalf from the top of the curve
T1 construct: expressed in transfected cells; host or cells: CHO-K1
In short: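 Activator potency: EC50 from 4-parameter logistic fit of mean Vhalf shift across ten 1-in-3 dilutions starting at 30 μM (n=4), with DMSO (typically 0.3%) control. Currents recorded by leak-subtracted whole-cell clamp of stable CHO-K1 KV7.2/KV7.3 cells, held at −80 mV, stepped −100 to +20 mV then 0 mV tails.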

[2] = target: T2, heteromeric KV7.3/KV7.5 channel (KCNQ3, KCNQ5) (Homo sapiens, UniProt O43525+Q9NR82); assay: Automated patch-clamp counter-screening against KV7.3/KV7.5 channel; conditions: HEK293 cells expressing Kv7.3/KV7.5; class by maximal shift in the Vhalf at 30 μM
T2 construct: host or cells: HEK293
Method: Assessment of in vitro potency against KV7.3/KV7.5 channels
Counter-screening was also carried out against the heteromeric KV7.3/KV7.5 channel (KCNQ3, Uniprot ID 043525; KCNQ5, Uniprot ID Q9NR82). The cell line used was a stably transfected HEK293 cell line with constitutive Kv7.3 expression and tetracycline inducible KV7.5 expression supplied by Charles River Laboratories.
Cells were maintained in the following culture media: • DMEM/F-12 with GlutaMAX™ (Life Technologies 31331-028), • 10% Tet Systems FCS (Clonetech 631106), • 500 μg/ml Geneticin™ selective antibiotic (G418, Invitrogen 1013-027), • 5 μg/ml Blasticidin S HCl (InvivoGen ant-bl-5), and • 100 μg/ml Zeocin (InvivoGen: ant-zn-5).
(§1) Cell maintenance, preparation, recording conditions and voltage protocols were all identical to those above.
(§2) Analysis of Data for Assessment of Potency
(§3) 10 concentrations of test compounds were applied to individual wells in quadruplicate to assess potency as a 1 in 3 dilution series from the maximal concentration of 30 μM. The average shift in the voltage for half activation (Vhalf) for each concentration was used to generate concentration-response curves fitted with a 4-parameter logistic model to estimate the EC50 from the point of inflection of the curve and the maximal shift in the Vhalf from the top of the curve.
(§4) The lower the EC50 value, the higher the potency of the analyzed compound. The selectivity criteria is assigned on the basis of the maximal shift in the Vhalf at 30 μM. […] In Table 3, ND means that selectivity was not determined.

[3] = target: T3, homomeric KV7.4 channel (KCNQ4) (Homo sapiens, UniProt P56696); assay: Automated patch-clamp (Qube) counter-screening assay against KV7.4 channel; conditions: CHO-K1 cells expressing KV7.4; class by maximal shift in the Vhalf at 30 μM
T3 construct: host or cells: CHO-K1
Excerpt: Assessment of In Vitro Potency Against KV7.4 Channels
A counter-screening assay was also developed on the Qube against the homomeric KV7.4 channel (KCNQ4, Uniprot ID P56696). The cell line used was a stably transfected CHO-K1 with constitutive KV7.4 expression supplied by Charles River Laboratories.
CHO-K1 cells stably expressing KV7.4 channels were maintained in the following culture media: • Hams F-12 with GlutaMAX™ (Life Technologies 31765027), • 10% Fetal clone 2 serum (Perbio Science SH30066.03), and • 250 μg/ml Geneticin™ selective antibiotic (G418, Invitrogen 1013-027).
as §1, §2, §3, §4

Structure (SMILES) | EC50 [1] | Kv7.2/7.3 ΔV1/2 [1] | Kv7.3/7.5 selectivity criteria [2] | Kv7.4 selectivity criteria [3]
O=C(NCc1ccnc(OCC(F)(F)F)c1)NCC1CCCCC1 [Compound 36, 1-(Cyclohexylmethyl)-3-((2-(2,2,2-trifluoroethoxy)pyridin-4-yl)methyl)urea] | 435 nM | 31.09 mV | A (Selective compounds showed Kv7.4 and/or Kv7.3/7.5 ΔV1/2 equal to or lower than 15 mV (letter A in table 3)) | A (Selective compounds showed Kv7.4 and/or Kv7.3/7.5 ΔV1/2 equal to or lower than 15 mV (letter A in table 3))
Cc1ccccc1CNC(=O)NCc1ccnc(OCC(F)(F)F)c1 [Compound 37, 1-(2-Methylbenzyl)-3-((2-(2,2,2-trifluoroethoxy)pyridin-4-yl)methyl)urea] | 820 nM | 19.56 mV | A (Selective compounds showed Kv7.4 and/or Kv7.3/7.5 ΔV1/2 equal to or lower than 15 mV (letter A in table 3)) | A (Selective compounds showed Kv7.4 and/or Kv7.3/7.5 ΔV1/2 equal to or lower than 15 mV (letter A in table 3))
O=C(NCCC1(C(F)(F)F)CC1)NCc1cc(OCC(F)(F)F)ncn1 [Compound 38, 1-((6-(2,2,2-Trifluoroethoxy)pyrimidin-4-yl)methyl)-3-(2-(1-(trifluoromethyl)cyclopropyl)ethyl)urea] | 2020 nM | 28.31 mV | A (Selective compounds showed Kv7.4 and/or Kv7.3/7.5 ΔV1/2 equal to or lower than 15 mV (letter A in table 3)) | A (Selective compounds showed Kv7.4 and/or Kv7.3/7.5 ΔV1/2 equal to or lower than 15 mV (letter A in table 3))
Cc1cc(CNC(=O)NCCC2(C(F)(F)F)CC2)cc(OCC(F)(F)F)n1 [Compound 39, 1-((2-Methyl-6-(2,2,2-trifluoroethoxy)pyridin-4-yl)methyl)-3-(2-(1-(trifluoromethyl)cyclopropyl)ethyl)urea] | 1470 nM | 21.29 mV | A (Selective compounds showed Kv7.4 and/or Kv7.3/7.5 ΔV1/2 equal to or lower than 15 mV (letter A in table 3)) | A (Selective compounds showed Kv7.4 and/or Kv7.3/7.5 ΔV1/2 equal to or lower than 15 mV (letter A in table 3))
CC(C)(CCNC(=O)NCc1ccnc(OCC(F)(F)F)c1)C(F)(F)F [Compound 41, 1-(4,4,4-Trifluoro-3,3-dimethylbutyl)-3-((2-(2,2,2-trifluoroethoxy)pyridin-4-yl)methyl)urea] | 428 nM | 29.72 mV | A (Selective compounds showed Kv7.4 and/or Kv7.3/7.5 ΔV1/2 equal to or lower than 15 mV (letter A in table 3)) | A (Selective compounds showed Kv7.4 and/or Kv7.3/7.5 ΔV1/2 equal to or lower than 15 mV (letter A in table 3))
O=C(NCc1cccc(F)c1)NCc1ccnc(OCC(F)(F)F)c1 [Compound 42, 1-(3-Fluorobenzyl)-3-((2-(2,2,2-trifluoroethoxy)pyridin-4-yl)methyl)urea] | 872 nM | 16.7 mV | A (Selective compounds showed Kv7.4 and/or Kv7.3/7.5 ΔV1/2 equal to or lower than 15 mV (letter A in table 3)) | A (Selective compounds showed Kv7.4 and/or Kv7.3/7.5 ΔV1/2 equal to or lower than 15 mV (letter A in table 3))
O=C(NCc1ccnc(OCC(F)(F)F)c1)NC1CCCCC1 [Compound 43, 1-Cyclohexyl-3-((2-(2,2,2-trifluoroethoxy)pyridin-4-yl)methyl)urea] | 765 nM | 53.72 mV | B (Non-selective compounds showed Kv7.4 and/or Kv7.3/7.5 ΔV1/2 higher than 15 mV (letter B in table 3)) | B (Non-selective compounds showed Kv7.4 and/or Kv7.3/7.5 ΔV1/2 higher than 15 mV (letter B in table 3))
O=C(NCCC1(C(F)(F)F)CC1)NCc1ccnc(N2CC(C(F)(F)F)C2)c1 [Compound 44, 1-((2-(3-(Trifluoromethyl)azetidin-1-yl)pyridin-4-yl)methyl)-3-(2-(1-(trifluoromethyl)cyclopropyl)ethyl)urea] | 6300 nM | 17.02 mV | A (Selective compounds showed Kv7.4 and/or Kv7.3/7.5 ΔV1/2 equal to or lower than 15 mV (letter A in table 3)) | A (Selective compounds showed Kv7.4 and/or Kv7.3/7.5 ΔV1/2 equal to or lower than 15 mV (letter A in table 3))
Cc1ccccc1NC(=O)NCc1ccnc(OCC(F)(F)F)c1 [Compound 46, 1-(o-Tolyl)-3-((2-(2,2,2-trifluoroethoxy)pyridin-4-yl)methyl)urea] | 432 nM | 21.41 mV | B (Non-selective compounds showed Kv7.4 and/or Kv7.3/7.5 ΔV1/2 higher than 15 mV (letter B in table 3)) | B (Non-selective compounds showed Kv7.4 and/or Kv7.3/7.5 ΔV1/2 higher than 15 mV (letter B in table 3))

The next lines start with results.

EC50 [1] | Kv7.2/7.3 ΔV1/2 [1] | Structure (SMILES) | Kv7.3/7.5 selectivity criteria [2] | Kv7.4 selectivity criteria [3]
254 nM | 26.23 mV | C[C@H](Oc1cc(CNC(=O)NCCC2(C(F)(F)F)CC2)ccn1)C(F)(F)F [Compound 47, (S)-1-(2-(1-(Trifluoromethyl)cyclopropyl)ethyl)-3-((2-((1,1,1-trifluoropropan-2-yl)oxy)pyridin-4-yl)methyl)urea] | A (Selective compounds showed Kv7.4 and/or Kv7.3/7.5 ΔV1/2 equal to or lower than 15 mV (letter A in table 3)) | A (Selective compounds showed Kv7.4 and/or Kv7.3/7.5 ΔV1/2 equal to or lower than 15 mV (letter A in table 3))
2410 nM | 22.74 mV | CC(C)(OCCNC(=O)NCc1ccnc(OCC(F)(F)F)c1)C(F)(F)F [Compound 48, 1-(2-((1,1,1-Trifluoro-2-methylpropan-2-yl)oxy)ethyl)-3-((2-(2,2,2-trifluoroethoxy)pyridin-4-yl)methyl)urea] | A (Selective compounds showed Kv7.4 and/or Kv7.3/7.5 ΔV1/2 equal to or lower than 15 mV (letter A in table 3)) | A (Selective compounds showed Kv7.4 and/or Kv7.3/7.5 ΔV1/2 equal to or lower than 15 mV (letter A in table 3))
4230 nM | 23.89 mV | O=C(NCCC1(C(F)(F)F)CC1)NCc1ccnc(OCC(F)(F)F)n1 [Compound 49, 1-((2-(2,2,2-Trifluoroethoxy)pyrimidin-4-yl)methyl)-3-(2-(1-(trifluoromethyl)cyclopropyl)ethyl)urea] | A (Selective compounds showed Kv7.4 and/or Kv7.3/7.5 ΔV1/2 equal to or lower than 15 mV (letter A in table 3)) | A (Selective compounds showed Kv7.4 and/or Kv7.3/7.5 ΔV1/2 equal to or lower than 15 mV (letter A in table 3))
289 nM | 33.62 mV | C[C@@H](Oc1cc(CNC(=O)NCCC2(C(F)(F)F)CC2)ccn1)C(F)(F)F [Compound 51, (R)-1-(2-(1-(Trifluoromethyl)cyclopropyl)ethyl)-3-((2-((1,1,1-trifluoropropan-2-yl)oxy)pyridin-4-yl)methyl)urea] | A (Selective compounds showed Kv7.4 and/or Kv7.3/7.5 ΔV1/2 equal to or lower than 15 mV (letter A in table 3)) | A (Selective compounds showed Kv7.4 and/or Kv7.3/7.5 ΔV1/2 equal to or lower than 15 mV (letter A in table 3))
7610 nM | 22.67 mV | O=C(NCCC1(C(F)(F)F)CC1)NCc1ccnc(OCc2ncccc2F)c1 [Compound 54, 1-((2-((3-Fluoropyridin-2-yl)methoxy)pyridin-4-yl)methyl)-3-(2-(1-(trifluoromethyl)cyclopropyl)ethyl)urea] | A (Selective compounds showed Kv7.4 and/or Kv7.3/7.5 ΔV1/2 equal to or lower than 15 mV (letter A in table 3)) | A (Selective compounds showed Kv7.4 and/or Kv7.3/7.5 ΔV1/2 equal to or lower than 15 mV (letter A in table 3))
